According to patent US9833497B2, “Human originated EGF domain proteins and use of the same” (CHENGDU SOURCEBIO LIMITED-LIABILITY COMPANY, priority 2013, dated 2017):

Experiments:
Type in all cases: cell-based
Serratia marcescens = experiment: MIC against Gram-negative bacteria: Serratia marcescens; details: 5×10^5 CFU/mL
Procedure, shortened: (§1)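 Bacteria grown in LB at 37° C with shaking to McFarland 0.5, pelleted and resuspended in fresh LB, then seeded at 5×10^5 CFU/mL per well. Purified recombinant human EGF domain proteins were two-fold serially diluted in triplicate and plates shaken at 37° C, 175 rpm. MIC is the lowest protein concentration with no bacterial growth.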

E. coli DH5α = experiment: Antibacterial activity: MIC and growth curve against E. coli DH5α in 96-well plate; details: minimal inhibitory concentration against E. coli DH5α; 96-well plate, 5×10^5 CFU/mL, 37° C., judged after 8 h
Procedure, shortened: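 Log-phase bacteria (OD600 ~0.5) resuspended in LB at 5×10^5 CFU/mL, exposed to recombinant protein at 50, 25, 12.5 μg/mL final in triplicate, 37 °C shaking at 175 rpm. OD600 read every 30 min; MIC is lowest concentration showing no growth.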

Klebsiella pneumonia = experiment: MIC against Gram-negative bacteria: Klebsiella pneumonia; details: 5×10^5 CFU/mL
Procedure, shortened: as §1

Citrobacter diversus = experiment: MIC against Gram-negative bacteria: Citrobacter diversus; details: 5×10^5 CFU/mL
Procedure, shortened: as §1

Aeromonas hydrophila = experiment: MIC against Gram-negative bacteria: Aeromonas hydrophila; details: 5×10^5 CFU/mL
Procedure, shortened: as §1

Enterobacter cloacae = experiment: MIC against Gram-negative bacteria: Enterobacter cloacae; details: 5×10^5 CFU/mL
Procedure, shortened: as §1

Pseudomonas aeruginosa = experiment: MIC against Gram-negative bacteria: Pseudomonas aeruginosa; details: 5×10^5 CFU/mL
Procedure, shortened: as §1

Moraxella catarrhalis = experiment: MIC against Gram-negative bacteria: Moraxella catarrhalis; details: 5×10^5 CFU/mL
Procedure, shortened: as §1

E. coli BL21 = experiment: MIC against Gram-negative bacteria: E. coli BL21; details: 5×10^5 CFU/mL
Procedure, shortened: as §1

Proteus vulgaris = experiment: MIC against Gram-negative bacteria: Proteus vulgaris; details: 5×10^5 CFU/mL
Procedure, shortened: as §1

Proteus mirabilis = experiment: MIC against Gram-negative bacteria: Proteus mirabilis; details: 5×10^5 CFU/mL
Procedure, shortened: as §1

[1] = Serratia marcescens, 96-well plate, 37° C., 10 h
[2] = Klebsiella pneumonia, 96-well plate, 37° C., 10 h
[3] = Citrobacter diversus, 96-well plate, 37° C., 10 h
[4] = Aeromonas hydrophila, 96-well plate, 37° C., 10 h
[5] = Enterobacter cloacae, 96-well plate, 37° C., 10 h
[6] = Pseudomonas aeruginosa, 96-well plate, 37° C., 10 h
[7] = Moraxella catarrhalis, 96-well plate, 37° C., 10 h
[8] = E. coli BL21, 96-well plate, 37° C., 10 h
[9] = Proteus vulgaris, 96-well plate, 37° C., 10 h
[10] = Proteus mirabilis, 96-well plate, 37° C., 10 h
[11] = 10 h cultivation at 37° C., two-fold serial dilution

In the case of “PRT461 (DVDECAWDAHLCREGQRCVNLLGSYRCLPDCGPGFRVADGAGCE; listed as Homo sapiens)”, the “MIC against S. marcescens” value (Serratia marcescens; 96-well plate, 37° C., 10 h) is reported as 12.5 µg/mL, the MIC (E. coli DH5α) is reported as 50 µg/mL and the “MIC against K. pneumonia” value (Klebsiella pneumonia; 96-well plate, 37° C., 10 h) is reported as 12.5 µg/mL. For the same substance, the “MIC against C. diversus” value (Citrobacter diversus; 96-well plate, 37° C., 10 h) was 50 µg/mL, the “MIC against A. hydrophila” value (Aeromonas hydrophila; 96-well plate, 37° C., 10 h) was 12.5 µg/mL and the “MIC against E. cloacae” value (Enterobacter cloacae; 96-well plate, 37° C., 10 h) was 50 µg/mL. The “MIC against P. aeruginosa” value (Pseudomonas aeruginosa; 96-well plate, 37° C., 10 h) was 50 µg/mL, the “MIC against M. catarrhalis” value (Moraxella catarrhalis; 96-well plate, 37° C., 10 h) was 25 µg/mL and the “MIC against E. coli BL21” value (E. coli BL21; 96-well plate, 37° C., 10 h) was 12.5 µg/mL. For the same substance, the “MIC against P. vulgaris” value (Proteus vulgaris; 96-well plate, 37° C., 10 h) was 25 µg/mL and the “MIC against P. mirabilis” value (Proteus mirabilis; 96-well plate, 37° C., 10 h) was 12.5 µg/mL.

“PRT522 (CVCNGHAEVCNINNPEKLFRCECQHHTCGETCDRCCTGYNQRRWRPAAWEQSHECEA; listed as Homo sapiens)” was tested, and the “MIC against S. marcescens” value (Serratia marcescens; 96-well plate, 37° C., 10 h) was 25 µg/mL, the MIC (E. coli DH5α) was 25 µg/mL and the “MIC against K. pneumonia” value (Klebsiella pneumonia; 96-well plate, 37° C., 10 h) was 12.5 µg/mL. The “MIC against C. diversus” value (Citrobacter diversus; 96-well plate, 37° C., 10 h) was 25 µg/mL, the “MIC against A. hydrophila” value (Aeromonas hydrophila; 96-well plate, 37° C., 10 h) was 50 µg/mL and the “MIC against E. cloacae” value (Enterobacter cloacae; 96-well plate, 37° C., 10 h) was 25 µg/mL. For the same substance, the “MIC against P. aeruginosa” value (Pseudomonas aeruginosa; 96-well plate, 37° C., 10 h) was 25 µg/mL, the “MIC against M. catarrhalis” value (Moraxella catarrhalis; 96-well plate, 37° C., 10 h) was 12.5 µg/mL and the “MIC against E. coli BL21” value (E. coli BL21; 96-well plate, 37° C., 10 h) was 50 µg/mL. The “MIC against P. vulgaris” value (Proteus vulgaris; 96-well plate, 37° C., 10 h) was 50 µg/mL and the “MIC against P. mirabilis” value (Proteus mirabilis; 96-well plate, 37° C., 10 h) was 25 µg/mL.

For “PRT505 (CECHVKGSHSAVCHLETGLCDCKPNVTGQQCDQCLHGYYGLDSGHGCRP; listed as Homo sapiens)”, the “MIC against S. marcescens” value (Serratia marcescens; 96-well plate, 37° C., 10 h) was 50 µg/mL, the MIC (E. coli DH5α) was 50 µg/mL and the “MIC against K. pneumonia” value (Klebsiella pneumonia; 96-well plate, 37° C., 10 h) was 12.5 µg/mL. The “MIC against C. diversus” value (Citrobacter diversus; 96-well plate, 37° C., 10 h) was 50 µg/mL, the “MIC against A. hydrophila” value (Aeromonas hydrophila; 96-well plate, 37° C., 10 h) was 12.5 µg/mL and the “MIC against E. cloacae” value (Enterobacter cloacae; 96-well plate, 37° C., 10 h) was 50 µg/mL. The “MIC against P. aeruginosa” value (Pseudomonas aeruginosa; 96-well plate, 37° C., 10 h) was 50 µg/mL, the “MIC against M. catarrhalis” value (Moraxella catarrhalis; 96-well plate, 37° C., 10 h) was 25 µg/mL and the “MIC against E. coli BL21” value (E. coli BL21; 96-well plate, 37° C., 10 h) was 12.5 µg/mL. The “MIC against P. vulgaris” value (Proteus vulgaris; 96-well plate, 37° C., 10 h) was 25 µg/mL and the “MIC against P. mirabilis” value (Proteus mirabilis; 96-well plate, 37° C., 10 h) was 12.5 µg/mL.

For “PRT828 (HGAGCQGLCWCQHGAPCDPISGRCLCPAGFHGHFCE; listed as Homo sapiens)”, the “MIC (μg/mL) S. marcescens” value (Serratia marcescens; S. marcescens, 10 h cultivation at 37° C.) was 25 µg/mL, the MIC (E. coli DH5α) was 12.5 µg/mL and the “MIC (μg/mL) K. pneumonia” value (Klebsiella pneumonia; K. pneumonia, 10 h cultivation at 37° C.) was 50 µg/mL. The “MIC (μg/mL) C. diversus” value (Citrobacter diversus; C. diversus, 10 h cultivation at 37° C.) was 12.5 µg/mL, the “MIC (μg/mL) A. hydrophila” value (Aeromonas hydrophila; A. hydrophila, 10 h cultivation at 37° C.) was 50 µg/mL and the “MIC (μg/mL) E. cloacae” value (Enterobacter cloacae; E. cloacae, 10 h cultivation at 37° C.) was 12.5 µg/mL. For the same substance, the “MIC (μg/mL) P. aeruginosa” value (Pseudomonas aeruginosa; P. aeruginosa, 10 h cultivation at 37° C.) was 12.5 µg/mL, the “MIC (μg/mL) M. catarrhalis” value (Moraxella catarrhalis; M. catarrhalis, 10 h cultivation at 37° C.) was 50 µg/mL and the “MIC (μg/mL) E. coli BL21” value (E. coli BL21; E. coli BL21, 10 h cultivation at 37° C.) was 50 µg/mL. For the same substance, the “MIC (μg/mL) P. vulgaris” value (Proteus vulgaris; P. vulgaris, 10 h cultivation at 37° C.) was 12.5 µg/mL and the “MIC (μg/mL) P. mirabilis” value (Proteus mirabilis; P. mirabilis, 10 h cultivation at 37° C.) was 25 µg/mL.

For “PRT106 (RSVCDLFPSYCHNGGQCYLVENIGAFCRCNTQDYIWHKGMRCE; listed as Homo sapiens)”, the “MIC (μg/mL) S. marcescens” value (Serratia marcescens; [1]) was 12.5 µg/mL, the MIC (E. coli DH5α) was 12.5 µg/mL and the “MIC (μg/mL) K. pneumonia” value (Klebsiella pneumonia; [2]) was 50 µg/mL. For the same substance, the “MIC (μg/mL) C. diversus” value (Citrobacter diversus; [3]) was 25 µg/mL, the “MIC (μg/mL) A. hydrophila” value (Aeromonas hydrophila; [4]) was 12.5 µg/mL and the “MIC (μg/mL) E. cloacae” value (Enterobacter cloacae; [5]) was 25 µg/mL. For the same substance, the “MIC (μg/mL) P. aeruginosa” value (Pseudomonas aeruginosa; [6]) was 12.5 µg/mL, the “MIC (μg/mL) M. catarrhalis” value (Moraxella catarrhalis; [7]) was 12.5 µg/mL and the “MIC (μg/mL) E. coli BL21” value (E. coli BL21; [8]) was 50 µg/mL. For the same substance, the “MIC (μg/mL) P. vulgaris” value (Proteus vulgaris; [9]) was 12.5 µg/mL and the “MIC (μg/mL) P. mirabilis” value (Proteus mirabilis; [10]) was 12.5 µg/mL.

For “PRT1252 (CPLTCDDISGQVTCPPDWPCGSPGCWCPEGQVLGSEGWCV; listed as Homo sapiens)”, the “MIC against S. marcescens” value (Serratia marcescens; [1]) was 12.5 µg/mL, the MIC (E. coli DH5α) was 12.5 µg/mL and the “MIC against K. pneumonia” value (Klebsiella pneumonia; [2]) was 12.5 µg/mL. The “MIC against C. diversus” value (Citrobacter diversus; [3]) was 12.5 µg/mL, the “MIC against A. hydrophila” value (Aeromonas hydrophila; [4]) was 50 µg/mL and the “MIC against E. cloacae” value (Enterobacter cloacae; [5]) was 25 µg/mL. The “MIC against P. aeruginosa” value (Pseudomonas aeruginosa; [6]) was 25 µg/mL, the “MIC against M. catarrhalis” value (Moraxella catarrhalis; [7]) was 25 µg/mL and the “MIC against E. coli BL21” value (E. coli BL21; [8]) was 50 µg/mL. For the same substance, the “MIC against P. vulgaris” value (Proteus vulgaris; [9]) was 25 µg/mL and the “MIC against P. mirabilis” value (Proteus mirabilis; [10]) was 50 µg/mL.

For “PRT1080 (IQSYCAKHLKCSQKCDQNKFSVKCSCYEGWVLEPDGESCR; listed as Homo sapiens)”, the “MIC S. marcescens” value (Serratia marcescens; [11]) was 50 µg/mL, the MIC (E. coli DH5α) was 50 µg/mL and the “MIC K. pneumonia” value (Klebsiella pneumonia; [11]) was 25 µg/mL. The “MIC C. diversus” value (Citrobacter diversus; [11]) was 12.5 µg/mL, the “MIC A. hydrophila” value (Aeromonas hydrophila; [11]) was 12.5 µg/mL and the “MIC E. cloacae” value (Enterobacter cloacae; [11]) was 50 µg/mL. For the same substance, the “MIC P. aeruginosa” value (Pseudomonas aeruginosa; [11]) was 12.5 µg/mL, the “MIC M. catarrhalis” value (Moraxella catarrhalis; [11]) was 12.5 µg/mL and the “MIC E. coli BL21” value (E. coli BL21; [11]) was 25 µg/mL. The “MIC P. vulgaris” value (Proteus vulgaris; [11]) was 25 µg/mL and the “MIC P. mirabilis” value (Proteus mirabilis; [11]) was 12.5 µg/mL.
